For the data set the following is noted: 101.33 kPa, Liquid, Vibrating tube method.

Numbers after ± are expanded uncertainties.

Among the data in the NIST ThermoML archive (doi:10.1016/j.fluid.2014.05.021) are mass density values, retold here.

As to `CCC[N+](C)(C)CC.O=S(=O)([N-]S(=O)(=O)C(F)(F)F)C(F)(F)F`, the mass density runs as follows: (278.15 K) 1420.02 ± 0.63 kg/m3; (283.15 K) 1415.26 ± 0.62 kg/m3; (288.15 K) 1410.6 ± 0.62 kg/m3; (293.15 K) 1405.96 ± 0.61 kg/m3; (298.15 K) 1401.26 ± 0.61 kg/m3; (303.15 K) 1396.46 ± 0.6 kg/m3. Also, the mass density is, setting by setting: (308.15 K) 1391.81 ± 0.6 kg/m3; (313.15 K) 1387.91 ± 0.59 kg/m3; (318.15 K) 1383.36 ± 0.59 kg/m3; (323.15 K) 1379.82 ± 0.58 kg/m3; (328.15 K) 1375.4 ± 0.6 kg/m3; (333.15 K) 1370.97 ± 0.58 kg/m3. In addition, the mass density (338.15 K) is on record as 1366.49 ± 0.58 kg/m3, the mass density (343.15 K) is 1361.67 ± 0.57 kg/m3, the mass density (348.15 K) amounted to 1357.66 ± 0.56 kg/m3 and the mass density (353.15 K) is recorded as 1353.3 ± 0.56 kg/m3.
As for `CCN(CC)c1c(N(CC)CC)[c+]1N(CC)CC.N#C[N-]C#N` [1,2,3-tris(diethylamino)-cyclopropenylium dicyanoamide], the mass density by setting is: (278.15 K) 1016.38 ± 1.9 kg/m3; (283.15 K) 1013.27 ± 1.9 kg/m3; (288.15 K) 1010.14 ± 1.9 kg/m3; (293.15 K) 1007 ± 1.9 kg/m3; (298.15 K) 1003.91 ± 1.9 kg/m3; (303.15 K) 1000.79 ± 1.9 kg/m3. The mass density worked out at 997.7 ± 1.9 kg/m3 (308.15 K); 994.62 ± 1.9 kg/m3 (313.15 K); 991.55 ± 1.9 kg/m3 (318.15 K); 988.5 ± 1.9 kg/m3 (323.15 K); 985.46 ± 1.8 kg/m3 (328.15 K); 982.43 ± 1.8 kg/m3 (333.15 K). The mass density was determined as 979.41 ± 1.8 kg/m3 (338.15 K), 976.41 ± 1.8 kg/m3 (343.15 K), 973.4 ± 1.8 kg/m3 (348.15 K) and 970.42 ± 1.8 kg/m3 (353.15 K).

One may read the mass density as mass per unit of volume.
